From patent US20230233533A1, “COMPOSITIONS, METHODS OF TREATING AND PREVENTING FUNGAL INFECTIONS, AND METHODS OF INHIBITING PRP8 INTEIN EXPRESSION” (Health Research, Inc., priority 2020, published 2023)

Key:
trypsin = test: Trypsin protease inhibition (Abz FRET substrate); assay type: biochemical; conditions: compound at 400 μM
Description: Trypsin and papain protease inhibition—An Abz FRET substrate (Abz-RRRRSAG-nTyr) developed previously (Li et al., “Existing Drugs as Broad-Spectrum and Potent Inhibitors for Zika Virus by Targeting NS2B-NS3 Interaction,” Cell Research 27(8):1046-1064 (2017), which is hereby incorporated by reference in its entirety) was used as the substrate for inhibition of trypsin and papain proteases. In black and clear-bottom 96-well plates, 1 μg trypsin (Sigma-Aldrich) was incubated with DMF or compounds at 400 μM at 25° C. for 30 min in a 70 μl reaction buffer containing 20 mM Tris, pH 8.0, 100 mM NaCl, 5% Glycerol, and 0.05% CHAPS. For papain, 1 μg Papain (Sigma-Aldrich) was incubated with compounds at 400 μM at 25° C. for 30 min in a 70 μl reaction buffer composed of 1.1 mM EDTA, 0.067 mM β-mercaptoethanol, 5.5 mM cysteine. […]

[1] = In vivo toxicity studies in adult BALB/c mice
Description: Mouse 1: Oral, VC—125 ul of formulation without drug is given per mouse by oral gavage
Mouse 3: IP, VC—60 ul of the formulation without the drug is injected intraperitoneally
A total of 5 doses were given (one/day). Weight, posture, movement, activity, paralysis, seizure, and fur nature were monitored in the morning and evening.

O=C(Nc1ccc(F)cc1)c1nnsc1S(=O)(=O)c1ccc(Cl)cc1 [6G-318S, 5-[(4-chlorophenyl)sulfonyl]-N-(4-fluorophenyl)-1,2,3-thiadiazole-4-carboxamide]
inhibition of trypsin protease activity (trypsin): neither 6G-318S, 6G-319S, nor cisplatin significantly inhibited | observed condition of mouse ([1]; 50 mg/kg intraperitoneally): died on day 2 | dose with no observed toxicity / safe dose, oral ([1]; mouse, in vivo, po, 5 days): 200 mg/kg
